# Read-outs that look alike come from different tables or passages of the source. Marks after values point to notes of the source that are not given here. *1 amine or outer side, *2 acyl side, *3 side chain or, on linkers, in order; H or OH if unused. Where a SMILES comes first, the peptide text is derived from it. Bridges are numbered along the chain shown (N, C = ends). Roman numbers before positions name the chains, in order. [ ]: non-standard residue; d: D form. Actinocin(9to1) = Cc1c2oc3c(C)ccc(C(=O)[*:1])c3nc-2c(C(=O)[*:2])c(N)c1=O; NMeV = CN[C@H](C(=O)O)C(C)C; Sar = CNCC(=O)O
# What was measured:
# Coprinus comatus lectin = experiment: Sugar-binding specificity: inhibition of lectin-induced hemagglutination by carbohydrates; format: biochemical; conditions: for Inhibition of lectin hemagglutinating activity by sugar: Coprinus comatus biomass lectin
# Experimental: Sugar-binding specificity of lectins. The investigation of inhibition of lectin-induced hemagglutination by various carbohydrates was performed in a manner analogous to the hemagglutination test. Sugar samples (0.3 M) were prepared in phosphate buffered saline. All of the dilutions were mixed with an equal volume (25 μL) of a solution of the lectin. The mixture was allowed to stand for 30 min at room temperature and then mixed with 50 μL of 2% rabbit erythrocyte suspension. Sugar-binding specificity was expressed as the minimum concentration of each sugar required for inhibition of hemagglutination of titer 4 of the lectin. N-Acetyl-D-galactosamine (GalNAc); N-Acetyl-D-glucosamine (GlcNAc), D(+)Galactose (Gal); D(+)Glucose, D(+)Lactose (Lac); D(+)Mannose, xylose, cellobiose, and dulcitol were tested for detection of sugar-binding specificity of lectins.
# IκBα phosphorylation = experiment: pIκBα level in H2O2-stimulated MCF7 cells, Western immunoblot; format: cell-based
# Experimental: Cell Lysis, Preparation of Total Cell Lysates. In order to measure the intracellular levels of certain proteins as a response to the crude fungal extracttreatments, each time after cells were collected, a total cell lysis was performed. The exact procedure of the total cell lysis is described below.
# Cells were collected and washed 3 times with cold phosphate buffered saline (PBS) through centrifugation for 5 min, at 3,000 rpm, and 4° C. The final cell amounts were collected in Eppendorf tubes and the left over PBS from the last washing was discarded so that only the cell pellet was left in each tube. For cell lysis, each time a freshly prepared lysis buffer was used with the following content: 500-1000 μL, depending on the number of samples, of cell lysis reagent, protease inhibitor cocktail, and both phosphatase inhibitor cocktails 1 and 2 at the final concentration of 1%, and 0.3 M of phenylmethylsulfonyl fluoride (PMSF). […]
# As a control, no H2O2 treatment was used, according to which the kinetics of pIκBα were determined. […]
# Densitometric Analysis. Densitometric quantitative analyses of the protein bands, detected by Western blot, have been carried out using the TotalLab software and are presented as folds of the volumes of protein bands. […]
# [1] = system: Tobacco mosaic virus (TMV), strain U1; format: in vivo; conditions: Datura stramonium
# Text: (§1) Virus: Tobacco mosaic virus (TMV), strain U1;
# (§2) Plants: Tobacco (Nicotiana tabacum L.) variety Immune 580 and Datura stramonium L., cultivated in a hothouse under conditions of natural lighting, humidity, and temperature. Plants at a stage of 4-6 leaves were used in the experiment.
# Polysaccharides, extracted from culture liquid of Tremella mesenterica were employed in this study using the method of Kovalenko with some modifications. To isolate acid glucuronoxylomannan (GXM) from neutral polysaccharides, we applied its sedimentation from a water solution with acetone (1:1) in the presence of 0.05 M CaCl2. Gas chromatography was carried out on Sephadex G-50 (2.5×80 cm) in pyridinium-acetate buffer, pH 4.5 (4 mL pyridine and 10 mL AcOH in 1 L water) and the eluate was monitored by refractive index detector.
# In in vitro experiments the water solutions of the total preparation, neutral polysaccharide preparations, and pure GXM at concentrations of 10, 100, 500, and 1000 μg/mL were added to a suspension of TMV (10 μg/mL). After incubation over the 30 min the left halves of datura's leaves were inoculated with this mixture. The right halves of leaves were inoculated with TMV at the same concentration without polysaccharides. The degree of inhibition of viral infection, or VIR, was counted (in percentage) according to the number of local lesions on the experimental and control halves of the leaves by the following formula: I=((K−D)/K) 100%, where I—is a degree of virus inhibition or level of AVR, %; K—is the number (size) of local lesions in the control; D—is the number (size) of local lesions in the experiment.
# [2] = system: Tobacco mosaic virus (TMV), strain U1; experiment: Induction of resistance against TMV infection in tobacco; format: in vivo, Nicotiana tabacum, variety Immune 580; conditions: for Level of induced resistance, % / Number of local lesions per leaf, Experiment: Nicotiana tabacum Immune 580; for Level of resistance: GXM 1000 μg/mL, FIG. 11
# Text: Abscissa: interval between introduction of GXM and inoculation of TMV (days). Ordinate: the ratio (%) of the number of local lesions in the experiment (dark solid bars) and in control (textured light bars).
# Abscissa: interval between introduction of GXM and inoculation of TMV (days). Ordinate: size of local lesions (mm) in the experiment (dark solid bars) and in control (textured light bars).
# as §1, §2
# (§3) Investigations of induced properties of GXM were carried out on the tobacco and datura plants. […] The two halves of leaves were inoculated by TMV (1-5 μg/mL). The degree of AVR was taken into account by the formula mentioned above.
# [3] = system: Tobacco mosaic virus (TMV), strain U1; experiment: Induction of resistance against TMV infection in Datura; format: in vivo; conditions: Datura stramonium
# Experimental: as §1, §2, §3
# interferon (IFN) = experiment: IFN level in blood plasma of mice after per os biomass; format: in vivo; conditions: dose 50 mg/animal
# [4] = system: Tobacco mosaic virus (TMV), strain U1; experiment: Influence of actinomycin D on GXM-induced resistance to TMV; format: in vivo, Nicotiana tabacum, variety Immune 580; conditions: FIG. 14
# Experimental: Abscissa: variants of the experiment: 1—GXM; 2—mixture of GXM and AMD (10 μg/mL); 3—AMD (10 μg/mL) introduced 2 days after GXM; 4—AMD (20 μg/mL) introduced 2 days after GXM; 5—AMD (10 μg/mL). Ordinate: the ratio (%) of the quantity of local lesions in the experiment (dark solid bars) and in control (textured light bars).
# When studying the GXM-induced mechanism of plant resistance, we used actinomycin D (AMD) inhibiting the DNA-dependent synthesis of mRNA by blocking RNA-polymerases. Solutions of AMD at the concentrations of 10 and 20 μg/mL and rhamnolipide (RL)−1 mg/mL, which were subepidermally introduced simultaneously or via definite periods of time after the GXM.
compound,measurement,setting,value
"OC[C@H]1O[C@@H](O[C@H]2[C@H](O)[C@@H](O)C(O)O[C@@H]2CO)[C@H](O)[C@@H](O)[C@H]1O (stereo partly drawn) [Lactose, D(+)Lactose]",MIC of saccharides,"Coprinus comatus lectin; lactose, minimal concentration inhibiting hemagglutination",780 µM
O=C[C@H](O)[C@@H](O)[C@H](O)CO [xylose],Inhibition of lectin hemagglutinating activity by sugar,Coprinus comatus lectin,did not inhibit
COc1cc(/C=C/C(=O)CC(=O)/C=C/c2ccc(O)c(OC)c2)ccc1O [curcumin],pIκBα level,"IκBα phosphorylation; 10 μM, 100 μM H2O2, preliminary data",significantly inhibited
same,Effect on IκBα phosphorylation,"IκBα phosphorylation; MCF7, 10 min 100 μM H2O2, FIG. 2",high phospho-IkBα inhibitory effect
glucuronoxylomannan [GXM],"Number of local lesions per leaf, Experiment",[1]; 10 μg/mL,26.5
same,"Inhibition, %",[1]; 100 μg/mL,16* %
same,"Number of local lesions per leaf, Experiment",[1]; 100 μg/mL,4.5
same,"Number of local lesions per leaf, Experiment",[1]; 1000 μg/mL,1.3
same,"Level of induced resistance, %",[2]; 100 μg/mL,20%
same,"Number of local lesions per leaf, Experiment",[2]; 100 μg/mL,98.1
same,"Level of induced resistance, %",[2]; 500 μg/mL,20%
same,"Number of local lesions per leaf, Experiment",[2]; 500 μg/mL,102.7
same,"Level of induced resistance, %",[2]; 1000 μg/mL,17* %
same,"Number of local lesions per leaf, Experiment",[2]; 1000 μg/mL,128.5
same,"Size of local lesions, experiment vs control","[2]; 1000 μg/mL, tobacco",reliable differences were not observed
same,"Level of induced resistance, %",[2]; 2000 μg/mL,52** %
same,"Number of local lesions per leaf, Experiment",[2]; 2000 μg/mL,63.4
same,Growth (size) of TMV local lesions,"[2]; 2500 μg/mL, tobacco, FIG. 13",intensifies the growth of viral lesions
same,Development of AVR relative to TMV,"[2]; 1000 and 2500 μg/mL, first day after the inducer, tobacco",induces the development of AVR
same,Level of resistance,"[2]; 5th day after the inducer, tobacco",30%
same,Level of resistance,"[2]; 7th day after the inducer, tobacco",20%
same,"Level of induced resistance, %",[3]; 100 μg/mL,110%
same,"Number of local lesions per leaf, Experiment",[3]; 100 μg/mL,71.2
same,"Level of induced resistance, %",[3]; 500 μg/mL,90%
same,"Number of local lesions per leaf, Experiment",[3]; 500 μg/mL,90.0
same,"Level of induced resistance, %",[3]; 1000 μg/mL,14* %
same,"Number of local lesions per leaf, Experiment",[3]; 1000 μg/mL,119.9
same,"Level of induced resistance, %",[3]; 2000 μg/mL,33** %
same,"Number of local lesions per leaf, Experiment",[3]; 2000 μg/mL,119.6
Poly I:C,IFN titre,interferon (IFN); 6 hours,320 units/ml
same,IFN titre,interferon (IFN); 24 hours,40 units/ml
same,IFN titre,interferon (IFN); 48 hours,<20 units/ml
O=C[C@H](O)[C@@H](O)[C@H](O[C@@H]1O[C@H](CO)[C@@H](O)[C@H](O)[C@H]1O)[C@H](O)CO [cellobiose],Inhibition of lectin hemagglutinating activity by sugar,Coprinus comatus lectin,did not inhibit
"Cc1c2oc3c(C)ccc(C(=O)N[C@@H]4C(=O)N[C@H](C(C)C)C(=O)N5CCC[C@H]5C(=O)N(C)CC(=O)N(C)[C@@H](C(C)C)C(=O)O[C@@H]4C)c3nc-2c(C(=O)N[C@@H]2C(=O)N[C@H](C(C)C)C(=O)N3CCC[C@H]3C(=O)N(C)CC(=O)N(C)[C@@H](C(C)C)C(=O)O[C@@H]2C)c(N)c1=O [AMD, actinomycin D] (I: T[dV]P[Sar][NMeV] / II: T[dV]P[Sar][NMeV]; ester I:1-I:C, II:1-II:C; linker I:N-II:N via Actinocin(9to1))",Inhibition of development of GXM-induced AVR,[4]; AMD 10 μg/mL,completely
same,Inhibition of development of GXM-induced AVR,[4]; AMD 20 μg/mL,partly
OC[C@@H](O)[C@H](O)[C@H](O)[C@@H](O)CO [dulcitol],Inhibition of lectin hemagglutinating activity by sugar,Coprinus comatus lectin,did not inhibit
